Results as given in US11884708B2, “Stapled peptide inhibitors of nemo as potential anti-inflammatory and anti-cancer drugs” (INSTITUT PASTEUR, priority 2015, dated 2024).
Read-outs that look alike come from different tables or passages of the source. Where a SMILES comes first, the peptide text is derived from it. Bridges are numbered along the chain shown (N, C = ends). [ ]: non-standard residue; d: D form. The star is where a group is joined. BODIPYFLEthylmaleimide = Cc1cc(C)n2c1C=C1C=CC(CCC(=O)NCCN3C(=O)CC(*)C3=O)=[N+]1[B-]2(F)F; R8 = C=CCCCCCC[C@@](C)(N)C(=O)O; S5 = C=CCCC[C@](C)(N)C(=O)O

Columns and labels:
[1] = biological target: CC2-LZ domain of NEMO (Mus musculus, UniProt O88522); experiment: Fluorescence anisotropy/polarization binding assay; details: for Kd: fixed peptide concentration 0.1 μM; for Binding affinity (FP) at 10 μM: fixed peptide concentration 10 μM
Protocol: Measurements were performed on a Tecan infinite F500 equipped with polarizing filters and using excitation and emission wavelengths at 485 nm and 535 nm, respectively. Anisotropy data were calculated using the Magellan software version 6.5. Prior experiments, the mouse CC2-LZ was extensively dialyzed in binding buffer containing 20 mM HEPES pH 7.4, 100 mM NaCl, and 0.05% P20 detergent (v/v). All experiments were performed in a 384 well plate (vol 25 μl) at room temperature. The BODIPY®-labeled peptide concentrations were fixed at 0.1 or 10 μM whereas the CC2-LZ concentration varied from 0 to 100 μM. Reference calibrated at 22 mP, was based on the fluorescence of the peptide alone. Each experimental binding curve was determined from at least 10 independent concentration points. The G-factor was calculated as previously described in Agou et al. [7], with a value of 0.75, which was observed constant within 5% upon all titrations. For analysis, the blank value corresponding to the value of buffer alone, was subtracted from all titration data.
All NEMO peptides were conjugated to an extra N-terminal cysteine with the fluorophore BODIPY® or FITC to determine their binding affinity for the CC2-LZ domain of NEMO (also called NOA or UBAN) by fluorescence polarization. For each peptide titration, various concentration of the target ranging from 0 to 100 μM and a fixed concentration of peptide at 0.1 or 10 μM were used at 25° C. […] For these reasons, all further titration experiments were performed with a fixed peptide concentration of 0.1 μM unless otherwise indicated.

[2] = CD spectroscopy, α-helical content; type: physicochemical; details: 50 μM peptide, phosphate buffer pH 7.0, UBI in TFE taken as 100%
[3] = Temperature-induced denaturation followed by CD; type: physicochemical; details: 30 μM or 300 μM, ΔCp ≈ 0; for Tm: thermal denaturation by CD; for ΔH: van't Hoff enthalpy change at Tm
Protocol: Temperature-induced denaturation experiments were performed by measuring the ellipticity at 222 nm from 1° C. to 95° C. in 1° C. steps, at a rate of 1° C./min, with a 2 nm bandwidth. Thermodynamic parameters including the melting temperature (Tm) and the van't Hoff enthalpy change at the melting temperature (ΔHm) were determined by fitting the denaturation curves with the Gibbs-Helmholtz equation as described elsewhere, [10]. The heat capacity change (ΔCp) was assumed to be 0 as judged by ΔHm which yielded similar values within 10% at two independent peptide concentrations (30 and 300 μM). The ellipticity was converted to differential extinction coefficient Δε (M^−1·cm^−1) per residue taking into account the peptide concentration determined by amino acid analysis.
Thermal stability of the peptides was also investigated by performing thermal denaturation profiles followed by CD (FIGS. 1 C and D and Table III). […] Indeed, the helicity of UBI-Aib (49%) is only 1.16-fold increased at 1° C. compared to UBI (42%), while its melting temperature (Tm=−8° C.) is 2.25 times higher than that of UBI (Tm=−18° C.).

[4] = read-out: Binding affinity (FP) at 0.1 μM

CC2-LZ domain of NEMO, sequence (O88522 242-343 limits assumed): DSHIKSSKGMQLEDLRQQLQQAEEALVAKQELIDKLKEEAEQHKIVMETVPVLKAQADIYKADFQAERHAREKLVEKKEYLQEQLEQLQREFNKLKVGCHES

SMILES	Kd ([1]; peptides with antennapedia, read-out: KD) [µM]	α-helical content at 1° C. [2]	Kd [1, 4] [µM]	Binding affinity (FP) at 10 μM [1]	ΔS [3]	Tm [3]	ΔH [3]	α-helical content at 1° C. ([2]; listed as UBI-SAHNA303-A310 (B)) [%]	Kd ([1]; peptides with antennapedia) [µM]
CC[C@H](C)[C@H](NC(=O)[C@H](CC(=O)O)NC(=O)[C@H](C)NC(=O)[C@H](CCC(N)=O)NC(=O)[C@H](C)NC(=O)[C@H](CCCCN)NC(=O)[C@H](CC(C)C)NC(=O)[C@H](CCCCN)NC(=O)[C@H](CCCCN)NC(=O)[C@H](Cc1c[nH]c2ccccc12)NC(=O)[C@H](CCCCN)NC(=O)[C@H](CCSC)NC(=O)[C@H](CCCNC(=N)N)NC(=O)[C@H](CCCNC(=N)N)NC(=O)[C@H](CC(N)=O)NC(=O)[C@H](CCC(N)=O)NC(=O)[C@H](Cc1ccccc1)NC(=O)[C@H](Cc1c[nH]c2ccccc12)NC(=O)[C@@H](NC(=O)[C@H](CCCCN)NC(=O)[C@@H](NC(=O)[C@H](CCC(N)=O)NC(=O)[C@H](CCCNC(=N)N)NC(=O)[C@H](CSC1CC(=O)N(CCNC(=O)CCC2=[N+]3C(=Cc4c(C)cc(C)n4[B-]3(F)F)C=C2)C1=O)NC(C)=O)[C@@H](C)CC)[C@@H](C)CC)C(=O)N[C@@H](Cc1ccc(O)cc1)C(=O)N[C@@H](CCCCN)C(=O)N[C@@]1(C)CCCC=CCCC[C@@](C)(C(=O)N[C@@H](CCC(=O)O)C(=O)N[C@@H](CCCNC(=N)N)C(=O)N[C@@H](Cc2c[nH]cn2)C(=O)N[C@@H](C)C(=O)N[C@@H](CCCNC(=N)N)C(=O)N[C@@H](CCC(=O)O)C(=O)N[C@@H](CCCCN)C(N)=O)NC(=O)[C@H](CCC(N)=O)NC(=O)[C@H](Cc2ccccc2)NC(=O)[C@H](CCCNC(=N)N)NC1=O (stereo partly shown) [A-UBI-SAHN A310-A314, RQIKIWFQNRRMKWKKLKAQADIYKX4RFQX6ERHAREK] (Ac-C(BODIPYFLEthylmaleimide)RQIKIWFQNRRMKWKKLKAQADIYK[S5]RFQ[S5]ERHAREK-NH2; staple 27-31)	0.2	57%	–	–	–	–	–	–	–
CC[C@H](C)[C@@H]1NC(=O)[C@](C)(NC(=O)[C@H](C)NC(=O)[C@H](CCC(N)=O)NC(=O)[C@H](C)NC(=O)[C@H](CCCCN)NC(=O)[C@H](CC(C)C)NC(=O)[C@H](CSC2CC(=O)N(CCNC(=O)CCC3=[N+]4C(=Cc5c(C)cc(C)n5[B-]4(F)F)C=C3)C2=O)NC(C)=O)CCCCCCC=CCCC[C@@](C)(C(=O)N[C@@H](C)C(=O)N[C@@H](CCC(=O)O)C(=O)N[C@@H](CCCNC(=N)N)C(=O)N[C@@H](Cc2c[nH]cn2)C(=O)N[C@@H](C)C(=O)N[C@@H](CCCNC(=N)N)C(=O)N[C@@H](CCC(=O)O)C(=O)N[C@@H](CCCCN)C(N)=O)NC(=O)[C@H](Cc2ccccc2)NC(=O)[C@H](CCCNC(=N)N)NC(=O)[C@H](C)NC(=O)[C@H](CCCCN)NC(=O)[C@H](Cc2ccc(O)cc2)NC1=O (single isomer, unassigned) [UBI-SAHN D306-Q313 (A)]	–	A: 75% -	34 ± 6	Very weak	A: −16 - cal. mol^−1.K^−1	35 ± 0.3 C°	A: −4800 - (cal. mol)^−1	–	–
CC[C@H](C)[C@@H]1NC(=O)[C@](C)(NC(=O)[C@H](C)NC(=O)[C@H](CCC(N)=O)NC(=O)[C@H](C)NC(=O)[C@H](CCCCN)NC(=O)[C@H](CC(C)C)NC(=O)[C@H](CSC2CC(=O)N(CCNC(=O)CCC3=[N+]4C(=Cc5c(C)cc(C)n5[B-]4(F)F)C=C3)C2=O)NC(C)=O)CCCCCCC=CCCC[C@@](C)(C(=O)N[C@@H](C)C(=O)N[C@@H](CCC(=O)O)C(=O)N[C@@H](CCCNC(=N)N)C(=O)N[C@@H](Cc2c[nH]cn2)C(=O)N[C@@H](C)C(=O)N[C@@H](CCCNC(=N)N)C(=O)N[C@@H](CCC(=O)O)C(=O)N[C@@H](CCCCN)C(N)=O)NC(=O)[C@H](Cc2ccccc2)NC(=O)[C@H](CCCNC(=N)N)NC(=O)[C@H](C)NC(=O)[C@H](CCCCN)NC(=O)[C@H](Cc2ccc(O)cc2)NC1=O (single isomer, unassigned) [UBI-SAHN D306-Q313 (B)]	–	B: 76%	–	Very weak	B: −17 cal. mol^−1.K^−1	35 ± 0.3 C°	B: −5290 (cal. mol)^−1	–	–
CC[C@H](C)[C@@H]1NC(=O)[C@H](CC(=O)O)NC(=O)[C@H](C)NC(=O)[C@H](CCC(N)=O)NC(=O)[C@](C)(NC(=O)[C@H](CCCCN)NC(=O)[C@H](CC(C)C)NC(=O)[C@H](CSC2CC(=O)N(CCNC(=O)CCC3=[N+]4C(=Cc5c(C)cc(C)n5[B-]4(F)F)C=C3)C2=O)NC(C)=O)CCCCCC/C=C/CCC[C@@](C)(C(=O)N[C@@H](CCCNC(=N)N)C(=O)N[C@@H](Cc2ccccc2)C(=O)N[C@@H](CCC(N)=O)C(=O)N[C@@H](C)C(=O)N[C@@H](CCC(=O)O)C(=O)N[C@@H](CCCNC(=N)N)C(=O)N[C@@H](Cc2c[nH]cn2)C(=O)N[C@@H](C)C(=O)N[C@@H](CCCNC(=N)N)C(=O)N[C@@H](CCC(=O)O)C(=O)N[C@@H](CCCCN)C(N)=O)NC(=O)[C@H](CCCCN)NC(=O)[C@H](Cc2ccc(O)cc2)NC1=O (stereo partly shown) [UBI-SAHN A303-A310 (B)] (Ac-C(BODIPYFLEthylmaleimide)LK[R8]QADIYK[S5]RFQAERHAREK-NH2; staple (E) 4-11; N-terminus and C-terminus assumed)	–	B: 80%	–	weak binding	B: −21 cal. mol^−1.K^−1	33 ± 0.3 C°	B: −6510 (cal. mol)^−1	80	–
CC[C@H](C)[C@H](NC(=O)[C@H](CCCCN)NC(=O)[C@@H](NC(=O)[C@H](CCC(N)=O)NC(=O)[C@H](CCCNC(=N)N)NC(=O)[C@H](CSC1CC(=O)N(CCNC(=O)CCC2=[N+]3C(=Cc4c(C)cc(C)n4[B-]3(F)F)C=C2)C1=O)NC(C)=O)[C@@H](C)CC)C(=O)N[C@@H](Cc1c[nH]c2ccccc12)C(=O)N[C@@H](Cc1ccccc1)C(=O)N[C@@H](CCC(N)=O)C(=O)N[C@@H](CC(N)=O)C(=O)N[C@@H](CCCNC(=N)N)C(=O)N[C@@H](CCCNC(=N)N)C(=O)N[C@@H](CCSC)C(=O)N[C@@H](CCCCN)C(=O)N[C@@H](Cc1c[nH]c2ccccc12)C(=O)N[C@@H](CCCCN)C(=O)N[C@@H](CCCCN)C(=O)N[C@@H](CC(C)C)C(=O)N[C@@H](CCCCN)C(=O)N[C@@H](C)C(=O)N[C@@H](CCC(N)=O)C(=O)N[C@@H](C)C(=O)N[C@]1(C)CCCCCCC=CCCC[C@@](C)(C(=O)N[C@@H](C)C(=O)N[C@@H](CCC(=O)OC)C(=O)N[C@@H](CCCNC(=N)N)C(=O)N[C@@H](Cc2c[nH]cn2)C(=O)N[C@@H](C)C(=O)N[C@@H](CCCNC(=N)N)C(=O)N[C@@H](CCC(=O)OC)C(=O)N[C@@H](CCCCN)C(N)=O)NC(=O)[C@H](Cc2ccccc2)NC(=O)[C@H](CCCNC(=N)N)NC(=O)[C@H](C)NC(=O)[C@H](CCCCN)NC(=O)[C@H](Cc2ccc(O)cc2)NC(=O)[C@H]([C@@H](C)CC)NC1=O (stereo partly shown) [A-UBI-SAHN D306-Q313 OMe, RQIKIWFQNRRMKWKKLKAQAX2IYKARFX5AX7RHARX9K] (Ac-C(BODIPYFLEthylmaleimide)RQIKIWFQNRRMKWKKLKAQA[R8]IYKARF[S5]AE(OMe)RHARE(OMe)K-NH2; staple 23-30)	–	–	–	–	–	–	–	–	0.06 ± 0.01
CC(=O)N[C@@H](CSC1CC(=O)N(CCNC(=O)CCC2=[N+]3C(=Cc4c(C)cc(C)n4[B-]3(F)F)C=C2)C1=O)C(=O)N[C@@H](CCC(=O)O)C(=O)N[C@@H](CC(C)C)C(=O)N[C@@H](C)C(=O)N[C@@H](CCC(N)=O)C(=O)N[C@@H](CC(C)C)C(=O)N[C@@H](CCC(N)=O)C(=O)N[C@@H](C)C(=O)N[C@@H](CCC(=O)O)C(=O)N[C@@H](CC(C)C)C(=O)N[C@@H](CC(=O)O)C(=O)N[C@]1(C)CCCCCCC=CCCC[C@@](C)(C(=O)N[C@@H](CC(=O)O)C(=O)N[C@@H](CCCCN)C(=O)N[C@@H](CCC(N)=O)C(=O)N[C@@H](CCC(=O)O)C(=O)N[C@@H](CC(C)C)C(=O)N[C@@H](CCCNC(=N)N)C(=O)N[C@@H](CCCCN)C(=O)N[C@@H](CC(C)C)C(N)=O)NC(=O)[C@H](CCC(N)=O)NC(=O)[C@H](C(C)C)NC(=O)[C@H](C(C)C)NC(=O)[C@H](C)NC(=O)[C@H](CCC(N)=O)NC(=O)[C@H](C(C)C)NC1=O (single isomer, unassigned) [Co-SAHN I307-A314 (A), ELAQLQAELDXVQAVVQXDKQELRKL, reference compound]	–	A: 45% -	> 1850	–	A: −24 - cal. mol^−1.K^−1	A: 21 - B: C°	A: −6970 - (cal. mol)^−1	–	–
